# Laboratory results reported in PMC3551932, “STK295900, a Dual Inhibitor of Topoisomerase 1 and 2, Induces G2 Arrest in the Absence of DNA Damage” (PLoS ONE, 2013).
# Assays:
# K-562 cells = experiment: Cell growth inhibition assay, K-562; type: cell-based; settings: Homo sapiens, K562, 96 h; Table 1; K-562, leukemia; growth up to 4 days
# Text: (§1) Human epitheloid cervical carcinoma HeLa cells, human breast adenocarcinoma MCF7 and MDA-MB-231cells, human hepatocellular carcinoma HepG2 cells, human colon adenocarcinoma HT-29 cells, and human colorectal carcinoma HCT-116 cells were purchased from ATCC® and maintained in DMEM medium. Human prostate carcinoma PC-3 cells (purchased from ATCC®), human gastric carcinoma SNU-484 and SNU-601(obtained from Korean Cell Line Bank (KCLB)), human leukemia K-562 and HL-60 cells (purchased from ATCC®), immortalized human prostate epithelial 267B1cells, and immortalized human embryonic lung fibroblast MRC5CV1 cells were maintained in RPMI 1640 medium whereas immortalized retinal pigment epithelial hTERT RPE-1 cells (purchased from ATCC®) were maintained in DMEM/F12 medium. All cell lines were cultured in media supplemented with 10% fetal bovine serum, 100 U/ml penicillin, and […] streptomycin at 37°C in a 5% CO2 incubator.
# (§2) Cells were seeded at the appropriate amount (1–2×10^3 cells) in triplicate in 96-well plates for 24 h and then treated with various concentrations of STK295900. Cell growth was determined by using EZ-CyTox cell viability assay kit (Daeil Lab. Service, Seoul, Korea). Ten microliters of WST solution were added to the treated cells at 24, 48, 72, and 96 h. Cells were further incubated at 37°C for 2 h and the absorbance was measured at 450 nm.
# HT-29 cells = experiment: Cell growth inhibition assay, HT-29; type: cell-based, human; settings: Homo sapiens, HT-29, 96 h, growth up to 4 days
# Text: as §1, §2
# MRC5CV1 cells = experiment: Cell growth inhibition assay, MRC5CV1; type: cell-based, human; settings: Homo sapiens, 96 h; Table 2 comparison; MRC5CV1, non-cancer; growth up to 4 days
# Text: as §1, §2
# HeLa cells [1] = experiment: Immunoblot of cell cycle and DNA damage checkpoint proteins; type: cell-based, human; settings: 24 h, STK295900 1 or 5 µM, camptothecin 10 µM, etoposide 10 µM
# Method: Cells were lysed with cold RIPA buffer (50 mM Tris-HCl pH 8.0, 150 mM NaCl, 1% NP-40, 0.5% sodium deoxycholate, 0.1% SDS) containing freshly added protease inhibitor, phosphatase inhibitor (SIGMA), 1 mM DTT, and 1 mM Na3VO4 on ice for 1 h. Whole cell lysates were centrifuged at 15,000 rpm for 20 min and then the supernatant was transferred into a new tube. An appropriate amount of cell lysate was subjected to SDS-PAGE. Then the resolved proteins were transferred onto a PVDF membrane (Bio-Rad) for immunoblot analyses with specific antibodies. The proteins were detected using chemiluminescence solution (Thermo Scientific, Rockford, IL).
# (A) Flow cytometric analysis for cell cycle distribution. HeLa cells were treated with the indicated concentrations of STK295900 for 24 h. Treated cells were then stained with propidium iodide (PI) and processed for cell cycle analysis. The bar graph represents the mean percentage of each cell cycle phase ± SD from three independent experiments. * = p<0.05 versus the respective G1, S, or G2/M phase of DMSO-treated cells. (B) Mitotic index of STK295900. HeLa cells were treated with the indicated concentrations of STK295900 for 24 h. Cells were then stained with Hoechst 33342 and mitotic cells were counted. […] (C) Cell cycle related proteins expression. […] Treated cells were lysed and subjected to immunoblot analyses with antibodies against cyclin A, cyclin B1, phospho-Histone H3 (S10), and Histone H3. β-actin was used as a loading control.
# (A) G2/M transition regulated proteins expression. […] GAPDH was used as a loading control. (B) DNA damage-checkpoint related proteins. […] Images were analyzed on a fluorescence microscope.
# HL-60 cells = experiment: Cell growth inhibition assay, HL-60; type: cell-based; settings: Homo sapiens, 96 h; Table 1; HL-60, leukemia; growth up to 4 days
# Text: as §1, §2
# SNU-484 cells = experiment: Cell growth inhibition assay, SNU-484; type: cell-based; settings: Homo sapiens, 96 h; Table 1; SNU-484, gastric carcinoma; growth up to 4 days
# Text: as §1, §2
# HeLa cells [2] = experiment: Cell growth inhibition assay, HeLa; type: cell-based, human; settings: Homo sapiens, 96 h, growth up to 4 days
# Text: as §1, §2
# [3] = target: T1, calf thymus topoisomerase 1 (Bos taurus, UniProt F1MN93); experiment: Supercoiled DNA relaxation assay for topoisomerase 1; type: biochemical
# T1 construct: purified calf thymus topoisomerase 1; purchased Takara Bio, Shiga, Japan; host or cells: calf thymus (tissue-purified)
# T1 sequence (F1MN93 1-767): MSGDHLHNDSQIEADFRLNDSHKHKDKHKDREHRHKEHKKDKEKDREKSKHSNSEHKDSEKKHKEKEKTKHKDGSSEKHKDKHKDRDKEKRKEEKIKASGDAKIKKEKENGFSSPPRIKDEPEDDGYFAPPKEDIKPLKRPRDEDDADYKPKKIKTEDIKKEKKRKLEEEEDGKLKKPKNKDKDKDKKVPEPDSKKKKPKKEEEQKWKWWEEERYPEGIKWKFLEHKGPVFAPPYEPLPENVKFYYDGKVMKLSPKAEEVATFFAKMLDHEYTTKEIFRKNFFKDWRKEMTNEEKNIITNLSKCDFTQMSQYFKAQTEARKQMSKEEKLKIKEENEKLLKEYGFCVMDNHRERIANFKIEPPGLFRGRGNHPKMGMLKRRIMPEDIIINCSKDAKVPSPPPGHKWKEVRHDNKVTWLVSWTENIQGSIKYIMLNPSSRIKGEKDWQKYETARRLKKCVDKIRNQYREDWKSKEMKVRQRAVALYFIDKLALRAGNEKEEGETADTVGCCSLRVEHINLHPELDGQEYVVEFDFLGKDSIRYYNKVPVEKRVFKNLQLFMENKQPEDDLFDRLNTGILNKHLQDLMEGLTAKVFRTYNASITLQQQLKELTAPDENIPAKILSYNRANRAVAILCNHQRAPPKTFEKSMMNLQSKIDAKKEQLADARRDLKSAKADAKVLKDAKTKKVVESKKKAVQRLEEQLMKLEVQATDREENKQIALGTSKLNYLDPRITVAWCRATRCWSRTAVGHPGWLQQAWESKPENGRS
smiles,measurement,setting,value
"Nc1ccc(-c2nc3ccc(-c4ccc5nc(-c6ccc(N)cc6)[nH]c5c4)cc3[nH]2)cc1 [STK295900, 4,4′-(3H,3′H-5,5′-bibenzimidazole-2,2′-diyl)dianiline]",IC50,K-562 cells,1380 nM
same,IC50,"HT-29 cells; Table 1, HT-29, colon adenocarcinoma",270 nM
same,IC50,"HT-29 cells; Table 2 comparison, HT-29",210 nM
same,IC50,MRC5CV1 cells,950 nM
same,p53 and p21 levels,HeLa cells [1],did not induce upregulation of p53 but marginally affected p21 level
same,"phosphorylation-dependent activation of ATM (S1981), ATR (S428), Chk1 (S345), and Chk2 (T68)",HeLa cells [1],"no increase in phosphorylations of ATM, ATR, Chk1, and Chk1"
same,Phosphorylation of Cdk1 at T161,HeLa cells [1]; nocodazole 200 ng/ml,dose-dependent increase
same,Wee1 and Cdc25C levels,HeLa cells [1]; nocodazole 200 ng/ml,no change in Wee1 and Cdc25C levels
same,cyclin A and cyclin B1 levels,HeLa cells [1]; nocodazole 200 ng/ml,accumulations of cyclin A and cyclin B1
same,inhibitory phosphorylation of Cdk1 (T14 and Y15),HeLa cells [1]; nocodazole 200 ng/ml,dose-dependent increase
same,IC50,HL-60 cells,500 nM
same,IC50,SNU-484 cells,1210 nM
same,IC50,"HeLa cells [2]; Table 1, cervical carcinoma",520 nM
same,IC50,HeLa cells [2]; Table 2 comparison,640 nM
same,supercoiled DNA at high concentrations (Top 1 catalytic activity),[3]; high concentrations (50 and 100 µM),supercoiled DNA could be observed
same,Top 1-mediated DNA relaxation,"[3]; pBR322, 37°C, 30 min, various concentrations",inhibited DNA relaxation activity of Top 1 in a dose-dependent manner
